Data as given in patent publication US5463078A, “Anisomycin derivatives and anticancer agents, antifungal agents and antiprotozoan agents containing the same” (Ajinomoto Co., Inc., priority 1993, dated 1995).
In brackets after ≈: the same amount, converted by molar mass. Where two headings read alike, the source gives them in different places. Each block holds one compound with its values, some of them ahead of it.

Legend:
FM3A cells = assay: Inhibitory activity on proliferation of FM3A culture; assay type: cell-based, mouse; conditions: for IC50: Mus musculus, read-out: IC50 (50% proliferation inhibition concentration)
Description: Experiment 2: Measurement of inhibitory activity of anisomycin derivatives on proliferation of FM3A culture
The proliferation-inhibiting activity of the present compounds against a culture of FM3A cells derived from mouse mammary tumor was investigated. Into each well of a 96-well microplate was added 50 μl of 10^5 cells/ml of FM3A cells, which had been suspended in a Dulbecco-modified Eagle culture medium containing 10% fetal calf serum. The IC50 (50% proliferation inhibition concentration) was calculated based on the number of surviving cells for a prescribed concentration of the test compounds.

Saccharomyces cereviceae = assay: Antifungal activity: growth inhibition of Saccharomyces cereviceae; assay type: cell-based; conditions: potato dextrose agar, 25° C., 7 days
Description: (§1) Experiment 3: Measurement of antifungal activity of anisomycin derivatives
(§2) The growth-inhibiting activity of the present compounds against various fungi was investigated. Into each well of a 6-well microplate, 0.3 ml of a solution of each test compound and 2.7 ml of a sterile solution of potato dextrose agar culture medium (kept at a temperature of about 50° C.) were added. After solidification, 5 μl from each suspension of test cells (yeast: approx. 10^3 cells/ml; mold: approx. 10^4 spores/ml) was inoculated onto the above-mentioned agar medium, and the cultures were maintained at 25° C. for 7 days. The growth of the test cells was observed, and the minimum concentration (MIC value) was determined at which complete inhibition of growth occurred. The test compounds were used after adjustment to 1 mg/ml with dimethylsulfoxide and dilution with distilled water.

Cryptococcus neoformans = assay: Antifungal activity: growth inhibition of Cryptococcus neoformans; assay type: cell-based; conditions: potato dextrose agar, 25° C., 7 days
Description: as §1, §2

Candida albicans = assay: Antifungal activity: growth inhibition of Candida albicans; assay type: cell-based; conditions: potato dextrose agar, 25° C., 7 days
Description: as §1, §2

Aspergillus fumigatus = assay: Antifungal activity: growth inhibition of Aspergillus fumigatus; assay type: cell-based; conditions: potato dextrose agar, 25° C., 7 days
Description: as §1, §2

Mucor rouxii = assay: Antifungal activity: growth inhibition of Mucor rouxii; assay type: cell-based; conditions: potato dextrose agar, 25° C., 7 days
Description: as §1, §2

[1] = system: P388 leukemia tumor cells; assay: Antitumor effect of anisomycin derivatives in vivo (P388 leukemia, CDF1 mice); design: species or system mouse; conditions: P388 i.p. in CDF1 mice; 10 mg/kg i.p. once a day for 10 days
Description: Experiment 4: Antitumor effect of anisomycin derivatives in vivo
Into one group of 5 CDF1 mice, 1×10^6 P388 leukemia tumor cells were intraperitoneally transplanted. Beginning the next day, a 10 mg/kg portion of the test compound dissolved in 0.2 ml of a solution containing an equal volume of dimethylsulfoxide and saline was administered to the mice intraperitoneally once a day for 10 days. The increase in the life span of the mice in days (ILS) was determined according to the following equation: [formula]

[2] = Measurement of stability of anisomycin derivatives in rat plasma; assay type: in vitro ADME
Description: Experiment 1: Measurement of stability of anisomycin derivatives in rat plasma
To investigate the stability of the present compounds in rat plasma, the half-life thereof was measured. For the measurement, an approximately 0.25 mg portion of each test compound was dissolved in 150 μl of rat plasma, and the solution was incubated at 37° C. Aliquots were taken over specific periods of time, and the amount of residual anisomycin derivative was measured by HPLC to determine the half-life thereof.

protein synthesis = conditions: in words; J. Biol. Chem., vol. 242, p. 3226, 1967; cited from earlier work
Stability in the blood = conditions: in words
[3] = 168 h, read-out: MIC (minimum concentration at which complete inhibition of growth occurred)

Compound: CCCCCCC(=O)OC1CNC(Cc2ccc(OC)cc2)C1OC(N)=O (stereo not shown) [Example 17, 4-O-heptanoyl-3-O-carbamoyldeacetylanisomycin]
IC50 (FM3A cells): 0.03 µg/mL (≈ 0.0793 µM)

Compound: COc1ccc(CC2NCC(O)C2OC(C)=O)cc1 (single isomer, unassigned) [Anisomycin, anisomycin]
MIC (minimum concentration at which complete inhibition of growth occurred) (Saccharomyces cereviceae): 12.5 µg/mL
MIC (minimum concentration at which complete inhibition of growth occurred) (Cryptococcus neoformans): 25 µg/mL
MIC (minimum concentration at which complete inhibition of growth occurred) (Candida albicans): 100 µg/mL
Half-life ([2]; rat plasma, 37° C., residual amount by HPLC, read-out: Half-life): 0.05 h
MIC (minimum concentration at which complete inhibition of growth occurred) (Aspergillus fumigatus): > 100 µg/mL
MIC (minimum concentration at which complete inhibition of growth occurred) (Mucor rouxii): > 100 µg/mL
IC50 (50% proliferation inhibition concentration) (FM3A cells): 0.02 µg/mL (≈ 0.0754 µM)
cytotoxic activity (protein synthesis): strong cytotoxic activity due to its inhibitory effect on protein synthesis
stability in the blood (Stability in the blood): extremely unstable in the blood and is rapidly hydrolyzed
ILS (increase in the life span of the mice) [1]: 0%

Compound: COCOC1C(O)CNC1Cc1ccc(OC)cc1 (stereo not shown) [Example 22, 3-O-methoxymethyldeacetylanisomycin]
Half-life [2]: No decomposition
IC50 (FM3A cells): 0.062 µg/mL (≈ 0.232 µM)

Compound: CCCCCC(=O)OC1CNC(Cc2ccc(OC)cc2)C1OC(N)=O (stereo not shown) [Example 16, 4-O-hexanoyl-3-O-carbamoyldeacetylanisomycin]
IC50 (FM3A cells): 0.039 µg/mL (≈ 0.107 µM)

Now from value to compound, other results behind:

MIC (Saccharomyces cereviceae; [3]): 25 µg/mL (≈ 55.7 µM)
MIC (Cryptococcus neoformans; [3]): 3.1 µg/mL (≈ 6.91 µM)
MIC (Candida albicans; [3]): 50 µg/mL (≈ 111 µM)
MIC (Aspergillus fumigatus; [3]): 50 µg/mL (≈ 111 µM)
MIC (Mucor rouxii; Amylomyces rouxii, 168 h, read-out: MIC (minimum concentration at which complete inhibition of growth occurred)): 50 µg/mL (≈ 111 µM)
Compound: CCCCCCCCCCCC(=O)OC1CNC(Cc2ccc(OC)cc2)C1OC(N)=O (stereo not shown) [Example 18, 4-O-dodecanoyl-3-O-carbamoyldeacetylanisomycin]
IC50 (FM3A cells): < 0.02 µg/mL
ILS (increase in the life span of the mice) [1]: 44%

Half-life [2]: No decomposition
Compound: CNC(=O)OC1C(O)CNC1Cc1ccc(OC)cc1 (stereo not shown) [Example 1, 3-O-methylcarbamoyl-deacetylanisomycin]
IC50 (FM3A cells): 0.06 µg/mL (≈ 0.214 µM)

Half-life ([2]; rat, plasma): 6.67 h
Compound: COc1ccc(CC2NCC(OC(C)=O)C2OC(N)=O)cc1 (stereo not shown) [Example 15, 4-O-acetyl-3-O-carbamoylanisomycin]
IC50 (FM3A cells): 0.039 µg/mL (≈ 0.126 µM)

Half-life [2]: No decomposition
Compound: COc1ccc(CC2NCC(O)C2OC(=O)NCCCc2ccccc2)cc1 (stereo not shown) [Example 5, 3-O-(3-phenylpropyl)carbamoyldeacetylanisomycin]

Half-life [2]: No decomposition
Compound: COc1ccc(CC2NCC(O)C2OC(N)=O)cc1 (stereo not shown) [Example 2, 3-O-carbamoyldeacetylanisomycin]

Half-life [2]: No decomposition
Compound: COc1ccc(CC2NCC(O)C2OC(=O)Nc2ccccc2)cc1 (stereo not shown) [Example 11, 3-O-phenylcarbamoyldeacetylanisomycin]
